What was measured:
[1] = compared to the compounds of the invention; cited from earlier work
[2] = compared to the compounds of the invention; cited from earlier work; remark: listed apart in the source
[3] = molecular target: T1, human progesterone receptor A (Homo sapiens, UniProt P06401); experiment: Progesterone receptor-antagonistic action in stably transfected SK-N-MC cells with MMTV-LUC reporter (PR-A); type: cell-based; settings: antagonistic potency against 0.1 nmol/l promegestone, 24 hours, luciferase
T1 construct: expressed in transfected cells; host or cells: SK-N-MC human neuroblastoma cells, stably transfected with pRChPR-A-neo and pMMTV-LUC
T1 sequence (P06401 1-769 isoform P06401-2): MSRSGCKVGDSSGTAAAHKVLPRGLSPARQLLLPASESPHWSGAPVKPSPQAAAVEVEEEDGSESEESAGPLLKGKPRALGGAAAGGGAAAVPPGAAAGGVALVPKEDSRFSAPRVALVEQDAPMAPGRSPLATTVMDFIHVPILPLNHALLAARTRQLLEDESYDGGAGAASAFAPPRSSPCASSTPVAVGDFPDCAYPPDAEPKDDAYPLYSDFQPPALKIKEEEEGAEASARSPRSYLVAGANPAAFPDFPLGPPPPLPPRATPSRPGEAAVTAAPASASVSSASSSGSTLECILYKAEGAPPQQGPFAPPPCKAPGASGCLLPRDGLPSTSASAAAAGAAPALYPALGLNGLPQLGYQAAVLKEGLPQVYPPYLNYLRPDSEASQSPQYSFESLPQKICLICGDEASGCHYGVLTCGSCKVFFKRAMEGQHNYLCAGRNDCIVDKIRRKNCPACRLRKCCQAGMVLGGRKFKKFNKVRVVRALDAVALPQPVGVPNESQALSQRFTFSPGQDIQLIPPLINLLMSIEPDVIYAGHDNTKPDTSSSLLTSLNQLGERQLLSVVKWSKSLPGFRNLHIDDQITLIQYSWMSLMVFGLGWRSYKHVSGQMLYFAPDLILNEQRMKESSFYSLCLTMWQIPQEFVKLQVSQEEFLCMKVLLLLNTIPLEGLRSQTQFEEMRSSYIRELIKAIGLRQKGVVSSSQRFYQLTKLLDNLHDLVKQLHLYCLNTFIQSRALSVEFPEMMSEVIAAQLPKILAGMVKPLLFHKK
Outline: (§1)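 SK-N-MC neuroblastoma cells stably expressing human PR-A or PR-B plus MMTV-LUC reporter, treated 24 h with test compound (0.01 nmol/l–[…]). Antagonist mode used co-treatment with 0.1 nmol/l promegestone; luciferase in lysates read as RLU, expressed as % efficacy and IC50/EC50.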

[4] = molecular target: T2, human progesterone receptor B (Homo sapiens, UniProt P06401); experiment: Progesterone receptor-antagonistic action in stably transfected SK-N-MC cells with MMTV-LUC reporter (PR-B); type: cell-based; settings: antagonistic potency against 0.1 nmol/l promegestone, 24 hours, luciferase
T2 construct: expressed in transfected cells; host or cells: SK-N-MC human neuroblastoma cells, stably transfected with pRChPR-B-neo and pMMTV-LUC
T2 sequence (P06401 1-933): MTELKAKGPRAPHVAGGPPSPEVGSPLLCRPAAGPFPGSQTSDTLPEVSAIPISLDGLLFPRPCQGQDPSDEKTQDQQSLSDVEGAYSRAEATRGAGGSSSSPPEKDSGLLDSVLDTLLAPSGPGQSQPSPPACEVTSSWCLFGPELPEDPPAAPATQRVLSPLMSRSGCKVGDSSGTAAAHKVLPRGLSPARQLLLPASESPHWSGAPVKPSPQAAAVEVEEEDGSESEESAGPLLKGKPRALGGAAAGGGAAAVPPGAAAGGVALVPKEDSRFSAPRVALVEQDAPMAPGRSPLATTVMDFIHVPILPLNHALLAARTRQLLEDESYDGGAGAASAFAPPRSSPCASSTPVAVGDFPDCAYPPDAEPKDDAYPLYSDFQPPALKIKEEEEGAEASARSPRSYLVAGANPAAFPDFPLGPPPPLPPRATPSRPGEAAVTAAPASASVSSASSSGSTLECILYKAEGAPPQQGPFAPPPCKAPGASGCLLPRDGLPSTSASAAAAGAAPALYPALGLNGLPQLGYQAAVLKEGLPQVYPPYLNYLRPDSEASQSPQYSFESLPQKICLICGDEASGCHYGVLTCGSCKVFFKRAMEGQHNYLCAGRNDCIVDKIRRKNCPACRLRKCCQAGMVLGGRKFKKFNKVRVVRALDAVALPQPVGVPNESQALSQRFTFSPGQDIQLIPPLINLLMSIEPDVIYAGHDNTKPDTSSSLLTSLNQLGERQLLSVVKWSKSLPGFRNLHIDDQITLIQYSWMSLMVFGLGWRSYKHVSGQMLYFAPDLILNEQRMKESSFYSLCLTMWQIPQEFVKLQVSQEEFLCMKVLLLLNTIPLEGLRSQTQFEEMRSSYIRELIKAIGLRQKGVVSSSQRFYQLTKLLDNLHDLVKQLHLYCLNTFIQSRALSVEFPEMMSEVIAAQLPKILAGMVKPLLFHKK
Outline: as §1

[5] = Metabolic stability in human liver microsomes; type: in vitro ADME
Outline: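 Human liver microsomes (0.5 mg/ml protein) were incubated with compound at 1 μM final and an NADPH-generating system in 100 mM phosphate pH 7.4 at 37 °C. Six samples (2–60 min) were methanol-quenched and measured by LC-MS/MS. Degradation half-life gave intrinsic clearance; Fmax assumed 100% absorption and first pass equal to microsomal metabolism.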

[6] = Metabolic stability in rat liver microsomes; type: in vitro ADME
Outline: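 Liver microsomes (solution at 0.5 mg/ml protein before cofactor addition) with 1 μM compound (final) and an NADPH-generating system at 37 °C, 100 mM phosphate pH 7.4, were sampled at 6 time points (2-60 min), methanol-quenched and analysed by LC-MS/MS. Half-life gave intrinsic clearance, and Fmax assumed 100% absorption and purely microsomal first pass.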

[7] = Solubility in aqueous medium at pH 7.4; type: physicochemical
Excerpt: In addition, some compounds have an unusually good solubility, for this active ingredient class, in aqueous medium under physiological conditions (Table 2).

pregnant rats = experiment: Abortion test on female rats; type: in vivo, rat; settings: d5-d7 p.c., autopsy d9 p.c.
Procedure: Abortion Test on Female Rats
The action of progesterone and of the progesterone receptor is a fundamental precondition for successful pregnancy or gestation in mammals. The progesterone-antagonistic action of the inventive compounds was tested on pregnant rats (6 rats per group) on days 5 to 7 post coitum under conventional housing and feeding conditions.
After successful mating, the pregnant animals (presence of sperm in the vaginal smear on day 1 of pregnancy=d1 p.c.) were randomized and divided into the treatment group and the control group. The animals then each received subcutaneously or orally 0.15; 0.5; 1.5 or 5 mg/kg of the test compound or 1.0 ml/kg of vehicle (benzyl benzoate/castor oil: 1+4 [v/v]) daily from day 5 to day 7 (d5-d7 p.c.).
Autopsy was conducted on day 9 (d9 p.c.). As a characteristic of progesterone receptor-antagonistic action, the uterus was examined for the presence of nidation sites. Complete absence, or else the presence of pathological, haemorrhagic or otherwise abnormal nidation sites, on day 9 (d9 p.c.) was considered as abortion.

Structure (SMILES) | in vivo half-life (in words) [1] | water solubility (in words) [2] | IC50 [3] [nM] | IC50 [4] [nM] | Predicted Fmax [%] (maximum oral bioavailability) Human [5] | Predicted clearance [l/h/kg] Human ([5]; 1 μM, well-stirred model) [L/h/kg] | Predicted Fmax [%] (maximum oral bioavailability) Rat [6] | Predicted clearance [l/h/kg] Rat ([6]; well-stirred model) [L/h/kg] | solubility (in words) ([7]; aqueous medium under physiological conditions) | solubility ([7]; aqueous medium, pH 7.4, aqueous buffer) [µg/mL] | Abortion rate [%] (pregnant rats; daily dose 0.5 mg/kg p.o.) | Abortion rate [%] (pregnant rats; daily dose 1.5 mg/kg p.o.) | Abortion rate [%] (pregnant rats; daily dose 5.0 mg/kg p.o.)
CC(=O)c1ccc(C2CC3(C)C(CCC3(O)C(F)(F)C(F)(F)F)C3CCC4=CC(=O)CCC4=C23)cc1 (stereo not drawn) [11-β-(4-acetylphenyl)-20,20,21,21,21-pentafluoro-17-hydroxynor-17-pregna-4,9-dien-3-one] | relatively short | poor | – | – | – | – | – | – | – | – | – | – | –
C[C@]12C[C@H](c3ccc(/C=C/C=C/C(=O)O)cc3)C3=C4CCC(=O)C=C4CC[C@H]3[C@@H]1CC[C@@]2(O)C(F)(F)C(F)(F)F [Example 17, (2E,4E)-5-[4-((8S,11R,13S,14S,17S)-17-hydroxy-13-methyl-3-oxo-17-pentafluoroethyl-2,3,6,7,8,11,12,13,14,15,16,17-dodecahydro-1H-cyclopenta[a]phenanthren-11-yl)phenyl]penta-2,4-dienoic acid] | – | – | 0.1 | 0.7 | 33 | 0.89 | 91 | 0.4 | improved | > 188 | 0 | 16.7 | 100.0
